We go through 32 compounds from US8546389B2 (priority 2010, dated 2013).

Some results are limits rather than exact numbers.

In one assay the target is 1b (BK) NS5bΔ21 (Hepatitis C virus genotype 1b (isolate BK) (HCV), UniProt P26663). Briefly: HCV polymerase inhibition assay, genotype 1b. To be noted: 1b (BK) NS5bΔ21, 33P-GTP incorporation; read-out: 1b polymerase IC50 (range class). It counts as biochemical, HCV genotype 1b (BK). The method, then: HCV polymerase reactions were carried out using a modified method of Howe et al., Antimicrobial Agents and Chemotherapy 2004 48(12): 4813-4821. Reactions contained a final concentration of, 0.5% DMSO, 50 nM, 1b (BK) NS5bΔ21, 20 mM Tris-HCl pH 7.5, 5 mM MgCl2, 5 mM MnCl2, 3 mM DTT, 0.05% BSA, 0.2 U/μL RNasin, 10 μg/mL Poly(rC) template, GTP (at Km) and 0.05 μCi/μL ^33P-GTP in a total reaction volume of 50 μL. Compounds were tested in a three fold dilution series, for example starting from 50 μM. Reactions were initiated with the addition of GTP and terminated after 1 hour with 50 μL ice cold 0.2 M EDTA. Terminated reactions were transferred to DEAE 96-well filter plates, unincorporated nucleotides washed from the filters and 50 μL scintillation fluid added prior to reading on a scintillation counter. Similarly, a genotype 3a (VRL-69) NS5bΔ21 polymerase enzyme assay was conducted using essentially the same method.
The compound concentration that reduced ^33P-GTP incorporation by 50% (IC50) was calculated using non-linear regression.

In assay [1] the test system is genotype 1b (Con 1) subgenomic replicon cell line. Briefly: HCV replicon assay, genotype 1b (Renilla luciferase). The format is cell-based, HCV genotype 1b (Con 1). To be noted: Hepatitis C virus; genotype 1b replicon, 72 hours, luciferase; read-out: genotype 1b EC50 (range class). On the procedure:
A genotype 1b (Con 1) subgenomic replicon cell line based on Blight et al., Science 2000 290: 1972-1974, modified to express a Renilla luciferase reporter gene was used to assess antiviral activity of test compounds. Cell cultures were maintained in a sub-confluent state in DMEM with glutamine, 10% heat-inactivated foetal bovine serum (FBS) and G418 (Geneticin®).
For assay, cells were seeded at a density of 7000 cells/well into 96 well tissue culture trays in culture media lacking G418. Compounds were tested in a three fold dilution series, for example starting from 50 uM. After 72 hours incubation at 37° C. and 5% CO2, Renilla luciferase activity was quantified via the Promega Renilla Luciferase or Renilla-Glo™ Luciferase Assay Systems (Promega corporation. The same method was employed for replicon assays using subgenomic genotype 1a and 2a replicon cell lines with a seeding cell density of 5000 cells/well for the 2a cell lines.
The compound concentration that reduced luciferase activity by 50% (EC50) was calculated using non-linear regression.
On the technique in general: A replicon is a self-replicating genome or part of one, used to study replication in cells.

Sequence of 1b (BK) NS5bΔ21 (P26663 2420-2989): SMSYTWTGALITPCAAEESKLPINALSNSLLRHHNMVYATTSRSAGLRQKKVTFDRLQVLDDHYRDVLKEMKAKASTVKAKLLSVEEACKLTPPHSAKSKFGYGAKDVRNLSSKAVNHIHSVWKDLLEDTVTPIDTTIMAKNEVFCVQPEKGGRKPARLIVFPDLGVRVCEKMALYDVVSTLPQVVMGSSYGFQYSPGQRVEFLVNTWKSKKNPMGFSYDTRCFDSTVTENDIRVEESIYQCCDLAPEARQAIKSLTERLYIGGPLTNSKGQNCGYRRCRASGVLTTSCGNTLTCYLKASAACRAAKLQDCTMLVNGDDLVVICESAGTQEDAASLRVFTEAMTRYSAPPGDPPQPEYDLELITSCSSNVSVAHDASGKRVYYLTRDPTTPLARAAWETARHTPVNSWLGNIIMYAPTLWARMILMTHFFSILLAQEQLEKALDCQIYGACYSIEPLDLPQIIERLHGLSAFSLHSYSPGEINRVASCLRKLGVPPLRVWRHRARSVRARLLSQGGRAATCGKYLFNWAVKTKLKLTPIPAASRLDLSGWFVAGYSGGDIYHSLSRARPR

As usually defined, the IC50 is the concentration needed to halve the response being measured. In general, EC50 refers to the concentration needed to bring the measured effect to its halfway point. `CCN(c1cc2nn(-c3ccc(F)cc3)c(C(=O)NC)c2cc1C1=CCOCC1)S(C)(=O)=O` [Compound 142]: the IC50 on 1b (BK) NS5bΔ21 lay within 10 to 50 µM. Further, the EC50 in assay [1] was in the range of 1 to 9.99 µM.

Consider `CNC(=O)c1c2cc(C3CC3)c(N(CCCNC(=O)CCN(C)C)S(C)(=O)=O)cc2nn1-c1ccc(Br)cc1` [Compound 185], for which the half-inhibitory concentration (IC50) at 1b (BK) NS5bΔ21 lay within 1 to 9.99 µM. Further, in assay [1], the concentration for a half-maximal effect (EC50) was in the range of 1 to 9.99 µM.

Turning to `CNC(=O)c1c2cc(C3CC3)c(N(CCCNC(=O)c3ccccc3C(=O)O)S(C)(=O)=O)cc2nn1-c1ccc(Br)cc1` [Compound 147], at 1b (BK) NS5bΔ21, the IC50 was under 0.99 µM. Moreover, the concentration giving a half-maximal response (EC50) in assay [1] fell in the range of 1 to 9.99 µM.

`CNC(=O)c1c2cc(C3CC3)c(N(CC(F)F)S(C)(=O)=O)cc2nn1-c1ccc(Br)cc1` [Compound 253]: on 1b (BK) NS5bΔ21, the 50% inhibitory concentration (IC50) was under 0.99 µM. Besides, the EC50 in assay [1] was under 0.99 µM.

With `CNC(=O)c1c2cc(C3CC3)c(N(CCCN(C)S(C)(=O)=O)S(C)(=O)=O)cc2nn1-c1ccc(Br)cc1` [Compound 135], the 50% inhibitory concentration (IC50) at 1b (BK) NS5bΔ21 is under 0.99 µM. Also, the EC50 in assay [1] is under 0.99 µM.

Turning to `C=C(C)c1cc2c(C(=O)NC)n(-c3ccc(F)cc3)nc2cc1N(CC)S(C)(=O)=O` [Compound 129], at 1b (BK) NS5bΔ21, the half-inhibitory concentration (IC50) was in the range of 10 to 50 µM. For the same compound, the EC50 in assay [1] is 1 to 9.99 µM.

For `CCN(C(=O)c1ccco1)c1cc2nn(-c3ccc(Br)cc3)c(C(=O)NC)c2cc1C1CC1` [Compound 221], at 1b (BK) NS5bΔ21, the 50% inhibitory concentration (IC50) was 10 to 50 µM. For the same compound, in assay [1], the 50% effective concentration (EC50) fell in the range of 1 to 9.99 µM.

Consider `CNC(=O)c1c2cc(C3CC3)c(N(CCCNC(=O)c3ccco3)S(C)(=O)=O)cc2nn1-c1ccc(Br)cc1` [Compound 181], for which, on 1b (BK) NS5bΔ21, the IC50 was under 0.99 µM. Moreover, the EC50 in assay [1] was under 0.99 µM.

Turning to `CNC(=O)c1c2cc(C3CC3)c(N(CCCO)S(C)(=O)=O)cc2nn1-c1ccc(C)cc1` [Compound 214], the IC50 on 1b (BK) NS5bΔ21 was under 0.99 µM. Besides, the EC50 in assay [1] is under 0.99 µM.

Turning to `CCN(c1cc2nn(-c3ccc(NC)nc3)c(C(=O)NC)c2cc1C1CC1)S(C)(=O)=O` [Compound 255], the IC50 on 1b (BK) NS5bΔ21 was under 0.99 µM. Besides, the EC50 in assay [1] is under 0.99 µM.

Turning to `CNC(=O)c1c2cc(C3CC3)c(N(CCC3COC(=O)OC3)S(C)(=O)=O)cc2nn1-c1ccc(Br)cc1` [Compound 97, 2-(4-bromophenyl)-5-cyclopropyl-N-methyl-6-{(methylsulfonyl)[2-(2-oxo-1,3-dioxan-5-yl)-ethyl]amino}-2H-indazole-3-carboxamide], the concentration for half-maximal inhibition (IC50) on 1b (BK) NS5bΔ21 is under 0.99 µM. Besides, the EC50 in assay [1] lay within 1 to 9.99 µM.

In the case of `CNC(=O)c1c2cc(C3CC3)c(N(CCO)S(C)(=O)=O)cc2nn1-c1ccc(Oc2ccccc2F)cc1` [Compound 18], the IC50 at 1b (BK) NS5bΔ21 lay in the range of 1 to 9.99 µM. Further, in assay [1], the EC50 is 1 to 9.99 µM.

Regarding `CNC(=O)c1c2cc(C3CC3)c(N(CCCNC(=O)c3cn(C)cn3)S(C)(=O)=O)cc2nn1-c1ccc(Br)cc1` [Compound 167], the half-inhibitory concentration (IC50) at 1b (BK) NS5bΔ21 is under 0.99 µM. Moreover, in assay [1], the EC50 was under 0.99 µM.

For the compound `CNC(=O)c1c2cc(C3CC3)c(N(CCCS(C)(=O)=O)S(C)(=O)=O)cc2nn1-c1ccc(Br)cc1` [Compound 100, 2-(4-bromophenyl)-5-cyclopropyl-N-methyl-6-[methylsulfonyl(3-methylsulfonylpropyl)amino]-2H-indazole-3-carboxamide], on 1b (BK) NS5bΔ21, the IC50 is under 0.99 µM. Also, the EC50 in assay [1] was under 0.99 µM.

As to `CC[C@H](c1cc2nn(-c3ccc(F)cc3)c(C(=O)NC)c2cc1C1CC1)S(C)(=O)=O` (racemic) [Compound 240], at 1b (BK) NS5bΔ21, the half-inhibitory concentration (IC50) was in the range of 10 to 50 µM. The concentration for a half-maximal effect (EC50) in assay [1] lay within 10 to 50 µM.

With `CNC(=O)c1ccccc1C(=O)NCCCN(c1cc2nn(-c3ccc(Br)cc3)c(C(=O)NC)c2cc1C1CC1)S(C)(=O)=O` [Compound 151], on 1b (BK) NS5bΔ21, the IC50 was under 0.99 µM. The EC50 in assay [1] lay within 1 to 9.99 µM.

Take `CCN(c1cc2nn(-c3ccccc3)c(C(=O)NC)c2cc1OC)S(C)(=O)=O` [Compound 125]: on 1b (BK) NS5bΔ21, the IC50 fell in the range of 10 to 50 µM. In addition, the concentration giving a half-maximal response (EC50) in assay [1] was in the range of 1 to 9.99 µM.

For `CCOC(=O)CCCN(c1cc2nn(-c3ccc(C)cc3)c(C(=O)NC)c2cc1C1CC1)S(C)(=O)=O` [Compound 230], the 50% inhibitory concentration (IC50) at 1b (BK) NS5bΔ21 is under 0.99 µM. Besides, the 50% effective concentration (EC50) in assay [1] is under 0.99 µM.

As for `CNC(=O)CCCN(c1cc2nn(-c3ccc(Br)cc3)c(C(=O)NC)c2cc1C1CC1)S(C)(=O)=O` [Compound 143], the half-maximal inhibitory concentration (IC50) at 1b (BK) NS5bΔ21 is under 0.99 µM. Moreover, in assay [1], the EC50 lay within 1 to 9.99 µM.

With `CNC(=O)c1c2cc(C3CC3)c(N(CCCNC(=O)c3ccn(C)c(=O)c3)S(C)(=O)=O)cc2nn1-c1ccc(Br)cc1` [Compound 219], on 1b (BK) NS5bΔ21, the IC50 is under 0.99 µM. Moreover, the EC50 in assay [1] lay in the range of 1 to 9.99 µM.

As for `CNC(=O)c1c2cc(C3CC3)c(N(CCNC(C)=O)S(C)(=O)=O)cc2nn1-c1ccc(Oc2ccc(F)cc2)cc1` [Compound 36], the IC50 at 1b (BK) NS5bΔ21 was 1 to 9.99 µM. The EC50 in assay [1] lay in the range of 1 to 9.99 µM.

Take `CNC(=O)c1c2cc(C3CC3)c(N3CCCC3=O)cc2nn1-c1ccc(NCC(C)C)cc1` [Compound 105, 5-cyclopropyl-N-methyl-2-{4-[(2-methylpropyl)amino]phenyl}-6-(2-oxopyrrolidin-1-yl)-2H-indazole-3-carboxamide]: the IC50 on 1b (BK) NS5bΔ21 is 10 to 50 µM. Moreover, the EC50 in assay [1] lay within 1 to 9.99 µM.

In the case of `CCN(c1cc2nn(-c3ccc(Nc4ccccc4F)cc3)c(C(=O)NC)c2cc1C1CC1)S(C)(=O)=O` [Compound 25], at 1b (BK) NS5bΔ21, the half-maximal inhibitory concentration (IC50) was under 0.99 µM. Moreover, in assay [1], the concentration giving a half-maximal response (EC50) is under 0.99 µM.

As for `CCOC(=O)CN(c1cc2nn(-c3ccc(Br)cc3)c(C(=O)NC)c2cc1C1CC1)S(C)(=O)=O` [Compound 141], the 50% inhibitory concentration (IC50) at 1b (BK) NS5bΔ21 lay within 1 to 9.99 µM. Moreover, the EC50 in assay [1] was 10 to 50 µM.

Consider `CNC(=O)c1c2cc(C3CC3)c(N(CCCNC(=O)c3ccc(N4CCOCC4)nc3)S(C)(=O)=O)cc2nn1-c1ccc(Br)cc1` [Compound 186], for which the IC50 on 1b (BK) NS5bΔ21 is under 0.99 µM. Further, the EC50 in assay [1] was under 0.99 µM.

In the case of `C=Cc1cc2c(C(=O)NC)n(-c3ccc(F)cc3)nc2cc1N(CC)S(C)(=O)=O` [Compound 71, 5-Ethenyl-6-[ethyl(methylsulfonyl)amino]-2-(4-fluorophenyl)-N-methyl-2H-indazole-3-carboxamide], the IC50 on 1b (BK) NS5bΔ21 was in the range of 1 to 9.99 µM. Moreover, the EC50 in assay [1] fell in the range of 1 to 9.99 µM.

`CNC(=O)c1c2cc(C3CC3)c(N(CCCNC(=O)CCC(=O)O)S(C)(=O)=O)cc2nn1-c1ccc(Br)cc1` [Compound 68, 4-[(3-{[2-(4-bromophenyl)-5-cyclopropyl-3-(methylcarbamoyl)-2H-indazol-6-yl](methylsulfonyl)amino}propyl)amino]-4-oxobutanoic acid]: the IC50 on 1b (BK) NS5bΔ21 is under 0.99 µM. The concentration for a half-maximal effect (EC50) in assay [1] fell in the range of 10 to 50 µM.

In the case of `CNC(=O)c1c2cc(C3CC3)c(N(CCO)S(C)(=O)=O)cc2nn1-c1ccc(Nc2ccccc2)cc1` [Compound 27], the half-maximal inhibitory concentration (IC50) at 1b (BK) NS5bΔ21 is under 0.99 µM. The 50% effective concentration (EC50) in assay [1] was under 0.99 µM.

For the compound `CNC(=O)c1c2cc(C3CC3)c(N(CCC(CO)CO)S(C)(=O)=O)cc2nn1-c1ccc(Br)cc1` [Compound 96, 2-(4-bromophenyl)-5-cyclopropyl-6-{[4-hydroxy-3-(hydroxymethyl)butyl] (methylsulfonyl)amino}-N-methyl-2H-indazole-3-carboxamide], the IC50 at 1b (BK) NS5bΔ21 was under 0.99 µM. The 50% effective concentration (EC50) in assay [1] is under 0.99 µM.

With `CNC(=O)c1c2cc(C3CC3)c(N(CCCNC(=O)CCC(=O)NC(C)C)S(C)(=O)=O)cc2nn1-c1ccc(Br)cc1` [Compound 67], on 1b (BK) NS5bΔ21, the IC50 is under 0.99 µM. Also, the EC50 in assay [1] lay within 1 to 9.99 µM.

`CNC(=O)c1c2cc(C3CC3)c(N(CCC3CCOCC3)S(C)(=O)=O)cc2nn1-c1ccc(Cl)cc1` [Compound 250]: on 1b (BK) NS5bΔ21, the concentration for half-maximal inhibition (IC50) was under 0.99 µM. Further, in assay [1], the EC50 is under 0.99 µM.

For `CNC(=O)c1c2cc(C3CC3)c(N(CCCO)S(C)(=O)=O)cc2nn1-c1ccc(Br)c(F)c1` [Compound 223], at 1b (BK) NS5bΔ21, the half-inhibitory concentration (IC50) is under 0.99 µM. In addition, in assay [1], the EC50 was under 0.99 µM.
